Measured values from publication PMC11868595, “Safety, pharmacokinetics and efficacy of HA121-28 in patients with advanced solid tumors and RET fusion-positive non-small-cell lung cancer: a multicenter, open-label, single-arm phase 1/2 trial” (Signal Transduction and Targeted Therapy, 2025).

System: patients with RET fusion-positive NSCLC
Test: Phase 2 trial: adverse events (CTCAE)
Assay type: in vivo, human
Excerpt: The phase 2 trial was still ongoing. It was a single-arm, multicenter, open-label, nonrandomized study to assess the efficacy and safety of HA121-28 in RET-fusion-positive NSCLC.
Patients aged 18–75 years (inclusive) who had unresectable locally advanced or metastatic NSCLC through histologically or cytologically examination were enrolled. Patients were also required to have documented RET fusions centrally examined by next-generation sequencing in certified laboratories but without other oncogenic alterations. Had progression on at least one previous line of standard treatment but have no previous use of other anti-RET inhibitors. The complete lists of inclusion and exclusion criteria of phase 1 and phase 2 are provided in both protocols (in Supplement).
In phase 1 trial, during the dose-escalation part, patients first administered HA121-28 in a single ascending dose under the fasted state, then followed up for seven days. Then, patients received ascending doses of HA121-28 (q.d.) on a 21-day on and 7-day off treatment scheme for a 28-day cycle. For patients deemed beneficial from the treatment by investigators, treatment could remain until disease progression, or they discontinued from the study. In the dose-expansion part of phase 1, as well as phase 2, patients received HA121-28 (q.d.) at the selected doses on a 21-day on and 7-day off treatment scheme until disease progression, or they discontinued from the study.
Treatment-emergent adverse events (TEAEs) were documented during the entire study period. The predefined adverse event of special interest (AESI) was ≥ grade 3 prolonged QT interval. Tumor imaging was performed using contrast-enhanced computed tomography or magnetic resonance imaging at screening, Day 28 of the first cycle, then approximately every eight weeks till the end of the study for phase 1; in phase 2, imaging was scheduled at screening, and every eight weeks during the first 40 weeks, followed by every 12 weeks for the rest of the study period. RECIST 1.1 was used by the independent review committee or investigators for assessment of tumor response. After the original assessment, a repeated assessment was required around four weeks later to confirm a complete or partial response.
The primary endpoint of phase 2 was the independent review committee evaluated ORR using RECIST 1.1. The secondary endpoints included investigators assessed ORR; DCR, PFS, and DOR by the independent review committee and investigators; overall survival and TEAEs. Each TEAE was graded according to CTCAE version 5.0 and coded by MedDRA (version 24.0). The phase 2 trial is ongoing; not all endpoints are reported in this paper.

COc1cc2c(Nc3ccc(Br)cc3F)ncnc2cc1OCCCCN(C)C.Cl.Cl [HA121-28, N-(4-bromo-2-fluorophenyl)-7-(4-(dimethylamino)butoxy)-6-methoxy quinazolin-4-amine dihydrochloride]
TEAE, All: ALT increased (Phase 2 (N=48), 450 mg): 20 (41.7) count (percentage) | TEAE, All: AST increased (Phase 2 (N=48), 450 mg): 21 (43.8) count (percentage) | TEAE, All: Anemia (Phase 2 (N=48), 450 mg): 5 (10.4) count (percentage) | TEAE, All: Any (Phase 2 (N=48), 450 mg): 48 (100) count (percentage) | TEAE, All: Asthenia (Phase 2 (N=48), 450 mg): 7 (14.6) count (percentage) | TEAE, All: Blood ALP increased (Phase 2 (N=48), 450 mg): 5 (10.4) count (percentage) | TEAE, All: Blood creatinine increased (Phase 2 (N=48), 450 mg): 9 (18.8) count (percentage) | TEAE, All: COVID-19 (Phase 2 (N=48), 450 mg): 7 (14.6) count (percentage) | TEAE, All: Cough (Phase 2 (N=48), 450 mg): 6 (12.5) count (percentage) | TEAE, All: Decreased appetite (Phase 2 (N=48), 450 mg): 5 (10.4) count (percentage) | TEAE, All: Diarrhea (Phase 2 (N=48), 450 mg): 35 (72.9) count (percentage) | TEAE, All: Dizziness (Phase 2 (N=48), 450 mg): 3 (6.3) count (percentage) | TEAE, All: Electrocardiogram T wave abnormal (Phase 2 (N=48), 450 mg): 5 (10.4) count (percentage) | TEAE, All: Fecal occult blood positive (Phase 2 (N=48), 450 mg): 0 count (percentage) | TEAE, All: GGT increased (Phase 2 (N=48), 450 mg): 6 (12.5) count (percentage) | TEAE, All: Hypertension (Phase 2 (N=48), 450 mg): 11 (22.9) count (percentage) | TEAE, All: Hypertriglyceridemia (Phase 2 (N=48), 450 mg): 7 (14.6) count (percentage) | TEAE, All: Hypoalbuminemia (Phase 2 (N=48), 450 mg): 4 (8.3) count (percentage) | TEAE, All: Hypokalemia (Phase 2 (N=48), 450 mg): 11 (22.9) count (percentage) | TEAE, All: Hyponatremia (Phase 2 (N=48), 450 mg): 5 (10.4) count (percentage) | TEAE, All: Nausea (Phase 2 (N=48), 450 mg): 3 (6.3) count (percentage) | TEAE, All: Neutrophil counts decreased (Phase 2 (N=48), 450 mg): 7 (14.6) count (percentage) | TEAE, All: Platelet counts decreased (Phase 2 (N=48), 450 mg): 6 (12.5) count (percentage) | TEAE, All: Prolonged QT interval (Phase 2 (N=48), 450 mg): 21 (43.8) count (percentage) | TEAE, All: Proteinuria (Phase 2 (N=48), 450 mg): 16 (33.3) count (percentage) | TEAE, All: Rash (Phase 2 (N=48), 450 mg): 30 (62.5) count (percentage) | TEAE, All: Sinus tachycardia (Phase 2 (N=48), 450 mg): 5 (10.4) count (percentage) | TEAE, All: Urinary tract infection (Phase 2 (N=48), 450 mg): 5 (10.4) count (percentage) | TEAE, All: Vomiting (Phase 2 (N=48), 450 mg): 6 (12.5) count (percentage) | TEAE, All: Weight loss (Phase 2 (N=48), 450 mg): 5 (10.4) count (percentage) | TEAE, All: White blood cell counts decreased (Phase 2 (N=48), 450 mg): 8 (16.7) count (percentage) | TEAE, ≥ Grade 3: ALT increased (Phase 2 (N=48), 450 mg): 3 (6.3) count (percentage) | TEAE, ≥ Grade 3: AST increased (Phase 2 (N=48), 450 mg): 2 (4.2) count (percentage) | TEAE, ≥ Grade 3: Anemia (Phase 2 (N=48), 450 mg): 0 count (percentage) | TEAE, ≥ Grade 3: Any (Phase 2 (N=48), 450 mg): 35 (72.9) count (percentage) | TEAE, ≥ Grade 3: Asthenia (Phase 2 (N=48), 450 mg): 0 count (percentage) | TEAE, ≥ Grade 3: Blood ALP increased (Phase 2 (N=48), 450 mg): 0 count (percentage) | TEAE, ≥ Grade 3: Blood creatinine increased (Phase 2 (N=48), 450 mg): 0 count (percentage) | TEAE, ≥ Grade 3: COVID-19 (Phase 2 (N=48), 450 mg): 1 (2.1) count (percentage) | TEAE, ≥ Grade 3: Cough (Phase 2 (N=48), 450 mg): 0 count (percentage) | TEAE, ≥ Grade 3: Decreased appetite (Phase 2 (N=48), 450 mg): 1 (2.1) count (percentage) | TEAE, ≥ Grade 3: Diarrhea (Phase 2 (N=48), 450 mg): 6 (12.5) count (percentage) | TEAE, ≥ Grade 3: Dizziness (Phase 2 (N=48), 450 mg): 0 count (percentage) | TEAE, ≥ Grade 3: Electrocardiogram T wave abnormal (Phase 2 (N=48), 450 mg): 0 count (percentage) | TEAE, ≥ Grade 3: Fecal occult blood positive (Phase 2 (N=48), 450 mg): 0 count (percentage) | TEAE, ≥ Grade 3: GGT increased (Phase 2 (N=48), 450 mg): 0 count (percentage) | TEAE, ≥ Grade 3: Hypertension (Phase 2 (N=48), 450 mg): 9 (18.8) count (percentage) | TEAE, ≥ Grade 3: Hypertriglyceridemia (Phase 2 (N=48), 450 mg): 0 count (percentage) | TEAE, ≥ Grade 3: Hypoalbuminemia (Phase 2 (N=48), 450 mg): 0 count (percentage) | TEAE, ≥ Grade 3: Hypokalemia (Phase 2 (N=48), 450 mg): 3 (6.3) count (percentage) | TEAE, ≥ Grade 3: Hyponatremia (Phase 2 (N=48), 450 mg): 0 count (percentage) | TEAE, ≥ Grade 3: Nausea (Phase 2 (N=48), 450 mg): 0 count (percentage) | TEAE, ≥ Grade 3: Neutrophil counts decreased (Phase 2 (N=48), 450 mg): 2 (4.2) count (percentage) | TEAE, ≥ Grade 3: Platelet counts decreased (Phase 2 (N=48), 450 mg): 0 count (percentage) | TEAE, ≥ Grade 3: Prolonged QT interval (Phase 2 (N=48), 450 mg): 15 (31.3) count (percentage) | TEAE, ≥ Grade 3: Proteinuria (Phase 2 (N=48), 450 mg): 0 count (percentage) | TEAE, ≥ Grade 3: Rash (Phase 2 (N=48), 450 mg): 1 (2.1) count (percentage) | TEAE, ≥ Grade 3: Sinus tachycardia (Phase 2 (N=48), 450 mg): 0 count (percentage) | TEAE, ≥ Grade 3: Urinary tract infection (Phase 2 (N=48), 450 mg): 1 (2.1) count (percentage) | TEAE, ≥ Grade 3: Vomiting (Phase 2 (N=48), 450 mg): 0 count (percentage) | TEAE, ≥ Grade 3: Weight loss (Phase 2 (N=48), 450 mg): 0 count (percentage) | TEAE, ≥ Grade 3: White blood cell counts decreased (Phase 2 (N=48), 450 mg): 1 (2.1) count (percentage) | Serious TEAE: ALT increased (Phase 2, 450 mg (N=48)): 1 (2.1) No. (%) | Serious TEAE: AST increased (Phase 2, 450 mg (N=48)): 1 (2.1) No. (%) | Serious TEAE: Abdominal Pain (Phase 2, 450 mg (N=48)): 1 (2.1) No. (%) | Serious TEAE: Abdominal distension (Phase 2, 450 mg (N=48)): 1 (2.1) No. (%) | Serious TEAE: Acute cholecystitis (Phase 2, 450 mg (N=48)): 0 No. (%) | Serious TEAE: Acute pancreatitis (Phase 2, 450 mg (N=48)): 0 No. (%) | Serious TEAE: Anal abscess (Phase 2, 450 mg (N=48)): 0 No. (%) | Serious TEAE: Any (Phase 2, 450 mg (N=48)): 19 (39.6) No. (%) | Serious TEAE: Aortic intramural hematoma (Phase 2, 450 mg (N=48)): 0 No. (%) | Serious TEAE: Arrhythmia (Phase 2, 450 mg (N=48)): 0 No. (%) | Serious TEAE: Blood bilirubin increased (Phase 2, 450 mg (N=48)): 0 No. (%) | Serious TEAE: Blood creatinine increased (Phase 2, 450 mg (N=48)): 0 No. (%) | Serious TEAE: COVID-19 (Phase 2, 450 mg (N=48)): 1 (2.1) No. (%) | Serious TEAE: Cardiac tamponade (Phase 2, 450 mg (N=48)): 0 No. (%) | Serious TEAE: Coronary artery atherosclerosis (Phase 2, 450 mg (N=48)): 1 (2.1) No. (%) | Serious TEAE: Death (Phase 2, 450 mg (N=48)): 1 (2.1) No. (%) | Serious TEAE: Diarrhea (Phase 2, 450 mg (N=48)): 1 (2.1) No. (%) | Serious TEAE: Drug eruption (Phase 2, 450 mg (N=48)): 0 No. (%) | Serious TEAE: Dyspnea (Phase 2, 450 mg (N=48)): 1 (2.1) No. (%) | Serious TEAE: Embolism (Phase 2, 450 mg (N=48)): 1 (2.1) No. (%) | Serious TEAE: Erythema multiforme (Phase 2, 450 mg (N=48)): 1 (2.1) No. (%) | Serious TEAE: Headache (Phase 2, 450 mg (N=48)): 1 (2.1) No. (%) | Serious TEAE: Hemoptysis (Phase 2, 450 mg (N=48)): 0 No. (%) | Serious TEAE: Hydronephrosis (Phase 2, 450 mg (N=48)): 1 (2.1) No. (%) | Serious TEAE: Hypertension (Phase 2, 450 mg (N=48)): 2 (4.2) No. (%) | Serious TEAE: Hypoalbuminemia (Phase 2, 450 mg (N=48)): 0 No. (%) | Serious TEAE: Intestinal obstruction (Phase 2, 450 mg (N=48)): 0 No. (%) | Serious TEAE: Intra-abdominal fluid collection (Phase 2, 450 mg (N=48)): 1 (2.1) No. (%) | Serious TEAE: Intracranial tumor hemorrhage (Phase 2, 450 mg (N=48)): 1 (2.1) No. (%) | Serious TEAE: Liver injury (Phase 2, 450 mg (N=48)): 0 No. (%) | Serious TEAE: Lung adenocarcinoma (Phase 2, 450 mg (N=48)): 1 (2.1) No. (%) | Serious TEAE: Malignant neoplasm progression (Phase 2, 450 mg (N=48)): 1 (2.1) No. (%) | Serious TEAE: Multiple organ dysfunction syndrome (Phase 2, 450 mg (N=48)): 0 No. (%) | Serious TEAE: Nausea (Phase 2, 450 mg (N=48)): 0 No. (%) | Serious TEAE: Nephrolithiasis (Phase 2, 450 mg (N=48)): 1 (2.1) No. (%) | Serious TEAE: Platelet counts decreased (Phase 2, 450 mg (N=48)): 0 No. (%) | Serious TEAE: Pleural effusion (Phase 2, 450 mg (N=48)): 0 No. (%)
